Test results reported in a compilation of properties of binary mixtures (doi:10.1021/je990207b).

Assay: excess molar enthalpy (molar enthalpy of mixing); xn = mol fraction of the nth substance listed
Conditions: 298.15 K, 100 kPa

CC(=O)O + CC#N
Conditions	excess molar enthalpy [kJ/mol]
x2 = 0.0927	0.0962
x2 = 0.1409	0.15
x2 = 0.2787	0.246
x2 = 0.381	0.291
x2 = 0.571	0.284
x2 = 0.7416	0.198
x2 = 0.809	0.159
x2 = 0.8722	0.112
x2 = 0.915	0.0794

CC(C)C(=O)O + CC#N
Conditions	excess molar enthalpy [kJ/mol]
x2 = 0.187	0.486
x2 = 0.2347	0.589
x2 = 0.2938	0.721
x2 = 0.3508	0.801
x2 = 0.3982	0.86
x2 = 0.4547	0.919
x2 = 0.5013	0.927
x2 = 0.5479	0.923
x2 = 0.6046	0.897
x2 = 0.6531	0.84
x2 = 0.6827	0.79
x2 = 0.7273	0.719
x2 = 0.8013	0.578
x2 = 0.9158	0.274

CC(C)CC(=O)O + CC#N
Conditions	excess molar enthalpy [kJ/mol]
x2 = 0.0895	0.19
x2 = 0.1287	0.27
x2 = 0.1972	0.409
x2 = 0.3371	0.632
x2 = 0.4026	0.73
x2 = 0.52	0.857
x2 = 0.5902	0.877
x2 = 0.6283	0.867
x2 = 0.7177	0.792
x2 = 0.7835	0.673
x2 = 0.8207	0.571
x2 = 0.8529	0.501
x2 = 0.8744	0.436
x2 = 0.9379	0.206

CCC(=O)O + CC#N
Conditions	excess molar enthalpy [kJ/mol]
x2 = 0.156	0.291
x2 = 0.2134	0.375
x2 = 0.278	0.461
x2 = 0.3407	0.533
x2 = 0.399	0.581
x2 = 0.4626	0.618
x2 = 0.5057	0.63
x2 = 0.5993	0.606
x2 = 0.6517	0.57
x2 = 0.7248	0.494
x2 = 0.8046	0.39

CCCC(=O)O + CC#N
Conditions	excess molar enthalpy [kJ/mol]
x2 = 0.089	0.16
x2 = 0.1448	0.264
x2 = 0.1884	0.338
x2 = 0.2668	0.453
x2 = 0.4626	0.629
x2 = 0.523	0.647
x2 = 0.5889	0.635
x2 = 0.6417	0.616
x2 = 0.6605	0.6
x2 = 0.686	0.575
x2 = 0.7141	0.547
x2 = 0.7884	0.438
x2 = 0.8201	0.384
x2 = 0.8728	0.298
x2 = 0.9067	0.217
x2 = 0.9377	0.13

CCCCC(=O)O + CC#N
Conditions	excess molar enthalpy [kJ/mol]
x2 = 0.1197	0.269
x2 = 0.1899	0.419
x2 = 0.2311	0.502
x2 = 0.2782	0.583
x2 = 0.4131	0.765
x2 = 0.4825	0.832
x2 = 0.5404	0.858
x2 = 0.6211	0.845
x2 = 0.637	0.838
x2 = 0.6655	0.816
x2 = 0.7138	0.76
x2 = 0.7441	0.725
x2 = 0.8076	0.585
x2 = 0.8487	0.481
x2 = 0.9029	0.303
x2 = 0.9603	0.119
